This is an account of results in US7851503B2, “Thrombopoetin receptor activator and process for producing the same” (Nissan Chemical Industries, Ltd., priority 2002, dated 2010).

The subject of assay [1] is UT7/EPO-mpl cells (expressing human TPO receptor (c-mpl)). The experiment in a line: Cell proliferation assay with WST-8 reagent, TPO-dependent cell line UT7/EPO-mpl. It counts as cell-based. The conditions noted are these: 4 days incubation, absorbance at 450 nm. How it is done: Stimulation of Proliferation of a Thrombopoietin (TPO)-Dependent Cell Line (2)
The reactivity of a compound of the present invention, 3-methoxyxanthocillin X dimethyl ether, with thrombopoietin (TPO) receptor was assayed using a human leukemic cell line, UT7/EPO-mpl.
(§1) Cells subcultured in the same manner as in Assay Example 1(1) were washed twice with PBS and suspended in IMDM containing 10% FBS at a cell density of 6×10^4 cells/ml. The cell suspension was transferred to a 96-well tissue culture plate (CORNING) in 100-μl aliquots. Then, 3-methoxyxanthocillin X dimethyl ether dissolved in DMSO was diluted 83-fold with IMDM containing 10% FBS and added to the aforementioned cell suspension in 20-μl aliquots. The suspension was incubated in a CO2 incubator (5% CO2, 37° C.) for 4 days. Cell proliferation was assayed using WST-8 reagent (Kishida Chemical Co., Ltd.) according to instructions by the manufacturer. A 10-μl aliquot of 5 mM WST-8 reagent solution was added to each well of the tissue culture plate, and the plate was incubated at 37° C. for 4 h. The formazan pigment generated was detected by measuring the absorbance at 450 nm with a 96-well microplate reader (Nihon Molecular Devices, Spectramax 190).
For orientation: Tetrazolium assays rely on reduction of a dye to a coloured formazan, in cell work by metabolically active cells.

Assay [2] deals with UT7/EPO cells. The experiment in a line: Cell proliferation assay with WST-8 reagent, mother cell line UT7/EPO expressing no TPO receptor. The following applies: 4 days incubation, absorbance at 450 nm. It counts as cell-based, human. The method, then: as §1
Assay [3] concerns UT7/EPO cells. The experiment in a line: Cell proliferation assay by the MTT method, mother cell line UT7/EPO expressing no TPO receptor. It is filed as cell-based, human. The following applies: 4 days incubation, absorbance at 550 nm. The method, then: (§2) The reactivity of a compound of the present invention, xanthocillin X monomethyl ether, with thrombopoietin (TPO) receptor was assayed using a human leukemic cell line, UT7/EPO-mpl. UT7/EPO-mpl is a stable transformed cell line obtained by introducing into human leukemic cell line UT7/EPO a vector that induces expression of human TPO receptor (c-mpl) under control of a cytomegaloviral promoter by the method of Takatoku et al. (J. Biol. Chem., 272:7259-7263 (1997)). […] These two cell lines were subcultured in IMDM (GIBCO) containing 10% fetal bovine serum (FBS; TRACE SCIENTIFIC) using a CO2 incubator (5% CO2, 37° C.).
(§3) The subcultured cells described above were washed twice with PBS and suspended in IMDM containing 10% FBS at a cell density of 6×10^4 cells/ml. The cell suspension was transferred to a 96-well tissue culture plate (CORNING) in 100-μl aliquots. Then, xanthocillin X monomethyl ether dissolved in DMSO was diluted 83-fold with IMDM containing 10% FBS and added to the aforementioned cell suspension in 20-μl aliquots. The suspension was incubated in a CO2 incubator (5% CO2, 37° C.) for 4 days. […] The formazan pigment generated was dissolved by adding 150 μl per well of 0.1 M/L HCl/isopropanol solution and the absorbance of the resulting pigment solution was measured at 550 nm with a 96-well microplate reader (BIO-RAD, M450).

Assay [4] deals with UT7/EPO-mpl cells (expressing human TPO receptor (c-mpl)). The assay can be described thus: Cell proliferation assay by the MTT method, TPO-dependent cell line UT7/EPO-mpl. It is filed as cell-based. The following applies: 4 days incubation, absorbance at 550 nm. The method, then:
Stimulation of Proliferation of a Thrombopoietin (TPO)-Dependent Cell Line (1)
as §2
as §3, with “aliquots.” for “aliquots. The suspension was incubated in a CO2 incubator (5% CO2, 37° C.) for 4 days.”

Turning to `[C-]#[N+]C(=Cc1ccc(OC)cc1)C(=Cc1ccc(OC)c(OC)c1)[N+]#[C-]` [3-methoxyxanthocillin X dimethyl ether], in assay [1], the “proliferation of TPO-responsive UT7/EPO-mpl cells (WST assay, FIG. 3)” value is “stimulated”. Further, in the assay on UT7/EPO cells [2], the “effect on proliferation of UT7/EPO, the mother cell line (WST assay, FIG. 4)” value is “no effect”.

With `[C-]#[N+]C(=C\c1ccc(O)cc1)/C(=C/c1ccc(OC)cc1)[N+]#[C-]` [xanthocillin X monomethyl ether], in the assay on UT7/EPO cells [3], the “effect on proliferation of UT7/EPO, the mother cell line (MTT assay, FIG. 2)” value was “no effect”. The “proliferation of TPO-responsive UT7/EPO-mpl cells (MTT assay, FIG. 1)” value in assay [4] is reported as “stimulated”.
